Earlier results on two compounds are cited in patent US20090156634A1, “Tropane alkaloids and trigonelline combinations and methods for administering the same” (priority 2007, published 2009).

For one data set, the system named is diaphragm. To be noted: rats, low-dose.
The test system of data set [1] is rat cultured sensory neurons. To be noted: attributed to inhibition of potassium channels.
The next data set has as its system central nervous system. To be noted: orally administered to rats.
The next data set relates to dendrites and axons. The note with it: mice models of Alzheimer's disease.

Each structure is given as a SMILES string. Structures can show the parent of a compound that is named as a salt.

In the case of `NCCc1ccc(O)c(O)c1` [dopamine], the “effect on diaphragm fatigue” value in the data set with diaphragm is reported as “can prevent and/or reverse diaphragm fatigue”.
Consider `C[n+]1cccc(C(=O)[O-])c1` [trigonelline, 3-carboxy-1-methyl-pyridinum inner salt], for which the “excitability of the rat dorsal gangliae” value in data set [1] is recorded as “increases the excitability”. Further, the “central nervous system effect” value in the data set with central nervous system was “central nervous system stimulating effects”. The “effect on dendrites and axons” value in the data set on dendrites and axons is “induce regenerative effects in dendrites and axons”.
